The text below walks through data of patent US9908863B2, “Piperidinylcarbazoles” (Merck Patent GmbH, priority 2013, dated 2018).

Test [1] deals with P. falciparum strain NF54. The test is described as follows: P. falciparum growth assay ([3H] hypoxanthine incorporation). The class given is cell-based. The following applies: Plasmodium falciparum, NF54, read-out: IC50 NF54. The procedure:
• Cultivation of P. falciparum:
P. falciparum strain NF54 was obtained from the Research and Reference Reagent
Resource Center (MR4) (Manassas, Va.). The two strains were maintained in vitro by a modification of the method of Trager and Jensen. Cultures were maintained in A positive (A+) human erythrocytes suspended at 5% hematocrit in complete medium. 5 g albumax II (Gibco-Invitrogen, Cat No#11021037), 2.5 mg gentamicin (Sigma Aldrich), 25 mM HEPES (Invitrogen), 5 mg hypoxanthine (Sigma), and 1 L of RPMI 1640 (Invitrogen, Cat No#11875085). Cultures were grown in 100 mm petri-dishes (BD Falcon) at a volume of 15 mL and were kept in a standard gas environment of 4% CO2 and 3% 02 at temperature 37° C. in a tri-gas incubator (Cat#3131, Thermo Scientific Forma Series II Water Jacketed). Parasite growth and morphology were observed daily using thin smears at 100× (oil immersion) magnification following staining with Geimsa stain. • P. falciparum growth assay:
The protocol assesses the compound efficacy against the growth of P. falciparum in-vitro.
Parasite growth was detected in assay by the traditional [3H] hypoxanthine incorporation assay as previously described by Desjardins and colleagues (Antimicrob. Agents Chemother., 16(6), 710, 1979). To perform the [3H] hypoxanthine incorporation assay, the new antimalarial agents were serially diluted 1:1 into hypoxanthine-free complete medium to a final volume of 100 μL (final antimalarial agent concentration range, 10,000 nM to 4.8 nM may change in special case) in 96 well sterile cell culture plates. […] All cultures used in the study are albumax II adopted. The microtiter plates were incubated in chamber in a standard gas environment at 37° C. for 72 h. After 48 h of incubation and prior to addition of 50 μL (0.5 μCi/well) 3H-Hypoxanthine (specific activity, 20 Ci/mmol, Conc. 1.0 mCi/ml; American Radiolabeled Chemicals, Inc., St. Louis, Mo.), culture growth was assessed by making the smears that ensures the culture has grown in % p and assay plate is further incubated for 24 h. Following the incubation period, the plates were harvested with a FilterMate cell harvester (Perkin Elmer) onto unifilter-96 GF/B plates, washed with distilled water to remove excess radiochemical and plates were kept for drying 37° C. overnight or 60° C. for 1 h. 50 μL of Microscint scintillation cocktail (Microscint-High Efficiency LSC-Cocktail; Perkin Elmer) added in the unifilter-96 GF/B plates and kept for 15-20 min. The plates were counted in a Top Count NXT microplate scintillation and luminescence counter (Perkin Elmer). The mean values for [3H]hypoxanthine incorporation in parasitized control and non-parasitized control erythrocytes were calculated.
Assay data were analyzed using Graph pad prism ver.5 software. A variable sigmoid dose response curve is plotted keeping log concentrations at X-axis and % inhibition at Y-axis.

Test [2] relates to Chloroquine/Pyrimethamine resistant Plasmodium falciparum K1. The test is described as follows: In vitro sensitivity assay: Plasmodium falciparum by 3H-hypoxanthine incorporation. The class given is cell-based. The following applies: read-out: IC50 K1 in vitro. The procedure:
Biological Test 1: In Vitro Sensitivity Assays: Plasmodium falciparum by ^3H-Hypoxanthine Incorporation.
The strain used for this assay is the Chloroquine/Pyrimethamine resistant Plasmodium falciparum K1 and drugs such as Chloroquine (10 mg/mL stock; start concentration 1000 ng/mL) and Artemisinine (Qinghaosu) (5 mg/mL stock; start concentration 10 ng/mL) were used as standards. Human red blood cells were used as host cells and the activity was measured using a ^3H-hypoxanthine incorporation assay.
Into a Costar™ 96-well microtitre plates, 100 μL of medium (RPMI 1640 without hypoxanthine 10.44 g/L, HEPES 5.94 g/L, Albumax® 5 g/L, Neomycin 10 mL/L, NaHCO3 2.1 g/L) were added to the wells of row containing drugs available from stock solutions of 10 mg/mL in DMSO (compounds were kept at −20° C. Since DMSO is toxic, care had to be taken not to exceed a final concentration of 0.5% DMSO). Then 100 μL of medium were added at rt to all wells of the plate. By means of a 12-well multi-pipette serial drug dilutions were prepared. A serial dilution factor of 1:2 is thus obtained. One row of wells without drugs served as controls. Next 100 μL of medium+washed human red blood cells A+(RBC) was added to the last 4 wells of the first row; these columns serve as background controls (that may be caused by 3H-hypoxanthine incorporation into RBC without the parasite). Into the remaining wells, 100 μL of medium+RBC+P. falciparum mix was added. The plates were placed for 48 h into a chamber at 37° C. gassed with a 4% CO2, 3% O2, 93% N2 mix. Finally 50 μL of medium+3H-hypoxanthine [(500 μL ^3H-hypoxanthine stock+500 μL EtOH+49 mL medium (0.5 μCi)] was added to each well and the plates were put back at 37° C. for 24 h into the chamber and gassed with a 4% CO2, 3% O2, 93% N2 mix. The plates were then read using the Cell Harvester and the data were transferred into a graphic program (Excel) and are evaluated to determine the IC50 by linear interpolation.

The test system of test [3] is Plasmodium berghei, (GFP ANKA strain). The test is described as follows: Plasmodium berghei acute in vivo model. The following applies: NMRI mice, 50 mg/kg/day i.p., 4 daily doses; for decrease of parasitemia: day 4, relative to untreated control group; for Mean Survival Days: survival monitored up to 30 days. As for the experimental part:
Biological Test 2: Plasmodium berghei Acute In Vivo Model.
For this study Plasmodium berghei, (GFP ANKA strain) was used as parasite strain and drugs such as Chloroquine (Sigma C6628) Artemisinin (Sigma 36, 159-3) were used as positive controls.
For the assay a donor mouse with approximately 30% parasitaemia, heparinised blood (containing 50 μL of 200 μ/mL Heparin) was taken and diluted in physiological saline to 10^8 parasitized erythrocytes per mL. An aliquot (0.2 mL) of this suspension was injected intravenously (i.v.) into experimental groups of 3 mice (NMRI mice, females, 20-22 g), and a control group of 3 mice. The mice were studied in a standard macrolon cages type II at 22° C. and 60-70% relative humidity, and were fed with special pellets (PAB45—NAFAG 9009, Provimi Kliba A G, CH-4303 Kaiseraugst, Switzerland), water ad libitum. 4 hours post-infection—the experimental groups were treated with a single dose i.p of the tested drug. The dosage was 50 mg/kg/day and the drug concentration (DMSO 10%) was adjusted so that 0.1 mL/10 g was injected. In a similar manner after 24, 48 and 72 hours post-infection—the experimental groups were treated with a single daily dose i.p. Finally 24 hours after the last drug treatment, 1 μL tail blood was taken and dissolved in 1 mL PBS buffer. Parasitaemia was determined with a FACScan (Becton Dickinson) by counting 100'000 red blood cells. The difference between the mean value of the control group and those of the experimental groups was then calculated and expressed as a percent relative to the control group (=activity). The survival of the animals was monitored up to 30 days and mice surviving for 30 days were checked for parasitaemia and subsequently euthanised. A compound is considered curative if the animal survives to day 30 post-infection with no detectable parasites. The result is expressed as 1) reduction of parasitaemia on day 4 in % as compared to the untreated control group, and 2) mean survival of the group.
B. Franke-Fayard et al., Mol. Biochem. Parasitol., 137(1),23-33, 2004

For test [4], the system named is P falciparum PF3D/^0087/N9. The test can be described thus: In vivo efficacy in a murine model of falciparum-malaria (4-day test). Also noted: species or system Plasmodium falciparum. From the text:
Biological Experiment 5: In Vivo Efficacy Against P falciparum PF3D/^0087/N9 for the compound No. 6 Described in Example 6 • In vivo activity in a murine model of falciparum-Malaria Angulo-Barturen I, Jimenez-Diaz M B, Mulet T, Rullas J, Herreros E, et al. (2008) A Murine Model of falciparum-Malaria by In Vivo Selection of Competent Strains in Non-Myelodepleted Mice Engrafted with Human Erythrocytes. PLoS ONE 3(5): e2252. doi:10.1371/journal.pone.0002252.
This study measures the therapeutic efficacy of compound no. 6 against Plasmodium falciparum growing in peripheral blood of NODscidIL2Rynull mice engrafted with human erythrocytes. The antimalarial efficacy of compound no. 6 is assessed using a “4-day test”.
The parameters of efficacy estimated in the study are a) the dose of compound no. 6 in mg·kg-1 that reduces parasitemia at day 7 after infection by 90% with respect to vehicle-treated mice (parameter denoted as ED90) and b) the estimated average daily exposure in whole blood of compound no. 6 necessary to reduce P. falciparum parasitemia in peripheral blood at day 7 after infection by 90% with respect to vehicle-treated mice (parameter used to measure the potency of the compound and denoted as AUCED90).

The mark [5] stands for this setting: Erythrocyte, P. falciparum K1 strain in human red blood cells, 3H-hypoxanthine incorporation.

The structures appear in SMILES notation. Structures can show the parent of a compound that is named as a salt. Where two headings read alike, the source gives them in different places.

For `O[C@H]1CNCC[C@@H]1n1c2ccc(Cl)cc2c2cc(Cl)ccc21` (racemic) [Compound 5, Trans-4-(3,6-Dichloro-carbazol-9-yl)-piperidin-3-ol hydrochloride salt], the IC50 was determined as 109 nM in test [1] and 9 nM in test [2] (K1, Erythrocyte).

As for `O[C@H]1CCNC[C@@H]1n1c2ccc(Cl)cc2c2cc(Cl)ccc21` (racemic) [Compound 8, trans-3-(3,6-dichloro-9H-carbazol-9-yl)piperidin-4-ol], the IC50 in test [2] (setting [5]) was found to be 781 nM.

Regarding `O[C@H]1CCN(C2CCCCC2)C[C@@H]1n1c2ccc(Cl)cc2c2cc(Cl)ccc21` (racemic) [Compound 14], the IC50 in test [2] (setting [5]) was 13 nM.

For `O[C@H]1CNCC[C@@H]1n1c2ccc(F)cc2c2cc(Cl)ccc21` [Compound 3, (3S,4S)-4-(3-Chloro-6-fluoro-carbazol-9-yl)-piperidin-3-ol hydrochloride salt], the IC50 in test [2] (K1, Erythrocyte) came out at 3 nM.

As for `O[C@@H]1CNCC[C@H]1n1c2ccc(F)cc2c2cc(Cl)ccc21` [Compound 4, (3R,4R)-4-(3-Chloro-6-fluoro-carbazol-9-yl)-piperidin-3-ol hydrochloride salt], in test [2] (K1, Erythrocyte), the IC50 worked out at 3 nM.

For `O[C@H]1CNCC[C@@H]1n1c2ccc(Cl)cc2c2cc(Cl)ccc21` [Compound 6, (3S,4S)-4-(3,6-Dichloro-carbazol-9-yl)-piperidin-3-ol hydrochloride salt], the IC50 in test [1] was 40.2 nM; in test [2] (K1, Erythrocyte), 10 nM. The same molecule gave a decrease of parasitemia in test [3] of 99.8%. In test [3], the “Mean Survival Days” value was determined as 30 days. Moreover, the ED90 in test [4] (dose reducing parasitemia at day 7 after infection by 90% vs vehicle-treated mice, NODscidIL2Rynull mice engrafted with human erythrocytes) is 22.5 mg/kg. Further, the AUCED90 in test [4] (estimated average daily exposure in whole blood needed to reduce parasitemia at day 7 by 90% vs vehicle-treated mice) was 28.5 μg · h · ml^−1 · day^−1.

Regarding `O[C@@H]1CNCC[C@H]1n1c2ccc(Cl)cc2c2cc(Cl)ccc21` [Compound 7, (3R,4R)-4-(3,6-Dichloro-carbazol-9-yl)-piperidin-3-ol hydrochloride salt], the IC50 in test [1] stood at 41.2 nM. Moreover, in test [3], the decrease of parasitemia came out at 100% and the “Mean Survival Days” value is reported as 30 days. Also, the IC50 in test [2] (K1, Erythrocyte) was 9 nM.

In the case of `O[C@H]1CNCC[C@@H]1n1c2ccc(F)cc2c2cc(F)ccc21` [Compound 9, (3S,4S)-4-(3,6-Difluoro-carbazol-9-yl)-piperidin-3-ol hydrochloride salt], the IC50 in test [1] amounted to 307 nM; in test [2] (K1, Erythrocyte), 16 nM.

For `O[C@@H]1CNCC[C@H]1n1c2ccc(F)cc2c2cc(F)ccc21` [Compound 10, (3R,4R)-4-(3,6-Difluoro-carbazol-9-yl)-piperidin-3-ol hydrochloride salt], the IC50 in test [2] (K1, Erythrocyte) is 33 nM.

With `F[C@@H]1CNCC[C@@H]1n1c2ccc(Cl)cc2c2cc(Cl)ccc21` [Compound 11, 3,6-Dichloro-9-((3R,4S)-3-fluoro-piperidin-4-yl)-9H-carbazole hydrochloride salt], in test [2] (K1, Erythrocyte), the 50% inhibitory concentration (IC50) worked out at 1150 nM.

For `Fc1ccc2c(c1)c1cc(Cl)ccc1n2[C@@H]1CCNC[C@@H]1F` [Compound 12, 3-Chloro-6-fluoro-9-((3S,4R)-3-fluoro-piperidin-4-yl)-9H-carbazole hydrochloride salt], the IC50 in test [2] (K1, Erythrocyte) was determined as 3670 nM.

With `Fc1ccc2c(c1)c1cc(Cl)ccc1n2[C@H]1CCNC[C@H]1F` [Compound 13, 3-Chloro-6-fluoro-9-((3R,4S)-3-fluoro-piperidin-4-yl)-9H-carbazole hydrochloride salt], the IC50 in test [2] (K1, Erythrocyte) is 886 nM.

In the case of `O[C@@H]1CNCC[C@H]1n1c2ccccc2c2ccccc21` [Compound 15, (3R,4R)-4-Carbazol-9-yl-piperidin-3-ol hydrochloride salt], in test [2] (K1, Erythrocyte), the IC50 worked out at 383 nM.

Turning to `O[C@H]1CNCC[C@@H]1n1c2ccccc2c2ccccc21` [Compound 16, (3S,4S)-4-Carbazol-9-yl-piperidin-3-ol hydrochloride salt], in test [2] (K1, Erythrocyte), the IC50 worked out at 364 nM.
